Laboratory results from US4110327A, “2,3 Diketo-piperazinocarbonylamino alkanoic acids and derivatives” (Toyama Chemical Co., Ltd., priority 1974, dated 1978).
In brackets after ≈: the same amount, converted by molar mass.

Experiments:
Shigella sonnei = assay: MIC against clinical isolates; assay type: cell-based; details: clinical isolate JS 11232; unit assumed
Description: (§1) The minimum inhibitory concentrations (MIC) was determined by the plate method disclosed in "Chemotherapy" (Japan), Vol. 16, (1968), pages 98 - 99. The culture medium used was a Heart infusion agar (pH 7.4). The number of the cells per plate used in the inoculum as 10^4 (10^6 cells/ml).
(§2) MIC was determined in the same manner as in the preceding paragraph (1).

Shigella flexneri = assay: MIC against clinical isolates; assay type: cell-based; details: clinical isolate JS 11215; unit assumed
Description: as §1, §2

Proteus vulgaris = assay: MIC against clinical isolates; assay type: cell-based; details: clinical isolate, unit assumed
Klebsiella pneumoniae [1] = assay: MIC against clinical isolates; assay type: cell-based; details: unit assumed
Proteus mirabilis = assay: MIC against clinical isolates; assay type: cell-based; details: clinical isolate, unit assumed
Salmonella typhi = assay: MIC against clinical isolates; assay type: cell-based; details: unit assumed
[2] = system: Pseudomonas aeruginosa I.F.O.; assay: MIC against standard strain, plate method; assay type: cell-based; details: unit assumed
Summary of the method: (§3)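 MIC values come from the plate method on heart infusion agar at pH 7.4, with each plate receiving 10^4 cells from a 10^6 cells/ml suspension.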

Klebsiella pneumoniae [3] = assay: MIC against standard strain, plate method; assay type: cell-based; details: unit assumed
Summary of the method: as §3

Escherichia coli NIHJ = assay: MIC against standard strain, plate method; assay type: cell-based; details: unit assumed
Summary of the method: as §3

Proteus vulgaris 3027 = assay: MIC against standard strain, plate method; assay type: cell-based; details: Proteus vulgaris 3027, standard strain; unit assumed
Summary of the method: as §3

[4] = system: Staphylococcus aureus 209p; assay: MIC against standard strain, plate method; assay type: cell-based; details: unit assumed
Summary of the method: as §3

Staphylococcus aureus = assay: MIC against clinical isolates; assay type: cell-based; details: unit assumed
Pseudomonas aeruginosa = assay: MIC against clinical isolates; assay type: cell-based; details: unit assumed
Proteus rettgeri = assay: MIC against clinical isolates; assay type: cell-based; details: clinical isolate, unit assumed
Proteus morganii = assay: MIC against clinical isolates; assay type: cell-based; details: clinical isolate, unit assumed
Escherichia coli = assay: MIC against clinical isolates; assay type: cell-based; details: unit assumed
Salmonella typhi-murium = assay: MIC against clinical isolates; assay type: cell-based; details: unit assumed
β-lactamase = assay: Resistant activity against β-lactamase, iodometric assay; assay type: biochemical, Pseudomonas aeruginosa GN 238; details: relative to Potassium Penicillin G = 100
Description: (3) Resistant activity against β-lactamase, Pseudomonas aergionan GN 238:
The resistant activity of each compound against β-lactamase was measured in the manner described below.
β-Lactamase was prepared from Pseudomonas aeruginosa GN 238. This microorganism was cultured in 100 ml of a medium containing 2 g of yeast extract, 10 g of polypeptone, 2 g of glucose, 7 g of disodium hydrogen phosphate, 2 g of potassium dihydrogen phosphate, 1.2 g of ammonium sulfate and 0.4 g of magnesium sulfate, per liter, in a 500-ml Erlenmeyer flask for 6 hrs. at 37° C with shaking. The resulting cells were collected by centrifugation (5,000 r.p.m. × 10 min.), washed three times with 0.1 M phosphate buffer (pH 7.0). Subsequently, the cells were subjected to sonication (20 KHz, 20 min.) and then centrifuged at 15,000 r.p.m. for 60 min. By using the supernatant of enzyme fluid, the resistance of each compound against β-lactamase was determined by the iodometric assay method. Each numeral shown in Table 7 is a relative activity value calculated by assuming as 100 the activity of the control Potassium Penicillin G.

## CCCCCN1CCN(C(=O)N[C@@H](C(=O)N[C@@H]2C(=O)N3[C@@H]2SC(C)(C)[C@@H]3C(=O)O)c2ccccc2)C(=O)C1=O (single isomer, unassigned) [compound 45]
Shigella sonnei
  MIC: 25 µg/mL (≈ 44.7 µM)
Shigella flexneri
  MIC: 25 µg/mL (≈ 44.7 µM)
Proteus vulgaris
  MIC: < 0.4 µg/mL
Klebsiella pneumoniae [1]; clinical isolate GN 3850
  MIC: 3.13 µg/mL (≈ 5.59 µM)
Klebsiella pneumoniae [1]; clinical isolate GN 4081
  MIC: 25 µg/mL (≈ 44.7 µM)
Klebsiella pneumoniae [1]; clinical isolate GN 4117
  MIC: 25 µg/mL (≈ 44.7 µM)
Proteus mirabilis
  MIC: < 0.4 µg/mL
Salmonella typhi; clinical isolate SL 819
  MIC: 1.57 µg/mL (≈ 2.81 µM)
Salmonella typhi; clinical isolate SL 2169
  MIC: 0.79 µg/mL (≈ 1.41 µM)
[2]
  MIC: 12.5 µg/mL (≈ 22.3 µM)
Klebsiella pneumoniae [3]
  MIC: 0.79 µg/mL (≈ 1.41 µM)
Escherichia coli NIHJ
  MIC: < 0.1 µg/mL
Proteus vulgaris 3027
  MIC: 0.4 µg/mL (≈ 0.715 µM)
[4]
  MIC: 0.79 µg/mL (≈ 1.41 µM)
Staphylococcus aureus; clinical isolate F-1
  MIC: 6.25 µg/mL (≈ 11.2 µM)
Staphylococcus aureus; clinical isolate F-4
  MIC: 6.25 µg/mL (≈ 11.2 µM)
Staphylococcus aureus; clinical isolate F-5
  MIC: > 200 µg/mL
Staphylococcus aureus; clinical isolate MS 8588
  MIC: 3.13 µg/mL (≈ 5.59 µM)
Staphylococcus aureus; clinical isolate MS 8596
  MIC: 3.13 µg/mL (≈ 5.59 µM)
Staphylococcus aureus; clinical isolate MS 8619
  MIC: 0.79 µg/mL (≈ 1.41 µM)
Staphylococcus aureus; clinical isolate MS 8684
  MIC: 3.13 µg/mL (≈ 5.59 µM)
Staphylococcus aureus; clinical isolate MS 8713
  MIC: 6.25 µg/mL (≈ 11.2 µM)
Pseudomonas aeruginosa; clinical isolate GN 82
  MIC: 12.5 µg/mL (≈ 22.3 µM)
Pseudomonas aeruginosa; clinical isolate GN 163
  MIC: 12.5 µg/mL (≈ 22.3 µM)
Pseudomonas aeruginosa; clinical isolate GN 221
  MIC: 3.13 µg/mL (≈ 5.59 µM)
Pseudomonas aeruginosa; clinical isolate GN 376
  MIC: 25 µg/mL (≈ 44.7 µM)
Pseudomonas aeruginosa; clinical isolate GN 383
  MIC: 25 µg/mL (≈ 44.7 µM)
Pseudomonas aeruginosa; clinical isolate GN 1035
  MIC: 50 µg/mL (≈ 89.3 µM)
Pseudomonas aeruginosa; clinical isolate GN 1091
  MIC: 12.5 µg/mL (≈ 22.3 µM)
Pseudomonas aeruginosa; clinical isolate GN 2565
  MIC: 25 µg/mL (≈ 44.7 µM)
Pseudomonas aeruginosa; clinical isolate GN 2987
  MIC: 12.5 µg/mL (≈ 22.3 µM)
Pseudomonas aeruginosa; clinical isolate GN (number not given; Table 5-3)
  MIC: 25 µg/mL (≈ 44.7 µM)
Pseudomonas aeruginosa; clinical isolate S-1
  MIC: 25 µg/mL (≈ 44.7 µM)
Pseudomonas aeruginosa; clinical isolate S-2
  MIC: 25 µg/mL (≈ 44.7 µM)
Pseudomonas aeruginosa; clinical isolate S-3
  MIC: 50 µg/mL (≈ 89.3 µM)
Pseudomonas aeruginosa; clinical isolate S-4
  MIC: 25 µg/mL (≈ 44.7 µM)
Proteus rettgeri
  MIC: 6.25 µg/mL (≈ 11.2 µM)
Proteus morganii
  MIC: 0.79 µg/mL (≈ 1.41 µM)
Escherichia coli; clinical isolate GN 3435
  MIC: 0.79 µg/mL (≈ 1.41 µM)
Escherichia coli; clinical isolate GN 3465
  MIC: 25 µg/mL (≈ 44.7 µM)
Escherichia coli; clinical isolate GN 3611
  MIC: > 200 µg/mL
Escherichia coli; clinical isolate K-1
  MIC: 0.79 µg/mL (≈ 1.41 µM)
Escherichia coli; clinical isolate K-3
  MIC: 200 µg/mL (≈ 357 µM)
Escherichia coli; clinical isolate K-4
  MIC: 0.79 µg/mL (≈ 1.41 µM)
Salmonella typhi-murium; clinical isolate SL 858
  MIC: 0.79 µg/mL (≈ 1.41 µM)
Salmonella typhi-murium; clinical isolate SL 2136
  MIC: 200 µg/mL (≈ 357 µM)
β-lactamase
  Relative activity: 16%
